The values that follow come from PMC10650850, “Discovery, Structure–Activity Relationship and In Vitro Anticancer Activity of Small-Molecule Inhibitors of the Protein–Protein Interactions between AF9/ENL and AF4 or DOT1L” (Cancers, 2023).

The structures appear in SMILES notation. Counter-ions that a name gives are not always drawn. A value given as a limit tells only on which side of the number the result lay.

The target in one assay is T1, AF9-DOT1L interaction (Homo sapiens, UniProt P42568).
T1 construct: human AF9 AHD domain (475–568); made in house; host or cells: E. coli BL21(DE3)
T1 sequence (P42568 475-568): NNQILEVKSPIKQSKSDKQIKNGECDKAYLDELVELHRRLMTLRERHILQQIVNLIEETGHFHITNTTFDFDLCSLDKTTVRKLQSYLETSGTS
The assay can be described thus: AlphaLisa assay, AF9-DOT1L interaction. In kind it is binding. Conditions: for IC50: MBP-protein 5 nM, biotinylated peptide 40 nM, 3 independent experiments with standard deviation, read-out: IC50 (μM) against the AF9-DOT1L interaction; for inhibition at 5 µM: compound at 5 μM, read-out: % Inhibition at 5 μM against the AF9-DOT1L interaction. From the text:
An AlphaLisa assay we previously developed was used for compound screening for inhibitors of the AF9-DOT1L interaction. The PPI takes the DOT1L-peptide coated donor beads and AF9 AHD coated acceptor beads together. The donor beads are illuminated with a laser beam (680 nm) to generate singlet oxygen radicals, which activate the adjacent acceptor beads to produce luminescence at 615 nm. When a compound can disrupt such PPI and separate the donor and acceptor beads, the highly unstable radicals are rapidly quenched by water without generating luminescence.
(§1) The cDNA for the human AF9 AHD domain (475–568) and ENL AHD domain (489–559) was synthesized (by Genscript, Piscataway, NJ, USA) and inserted into the pMAL c5X expression plasmid. The DOT1L peptide (Biotin-AHX-[…]) and AF4 peptide (Biotin-AHX-[…]) for the Alpha assay were purchased from Genscript.
(§2) Alpha assays were developed in our previous publication, using a Perkin-Elmer AlphaLisa anti-MBP kit, which contains streptavidin donor beads and anti-MBP acceptor beads. Briefly, the assay was performed using a MBP-protein (5 nM), a biotinylated peptide (40 nM), and increasing concentrations of a compound in 25 µL buffer (PBS with 0.5% BSA, pH 7.5) in 384-well plates according to the manufacturer’s protocol and measured with a Tecan SPARK microplate reader. Data were imported into Prism (version 5.0), and IC50 values from 3 independent experiments with standard deviation were obtained by using a standard dose-response curve fitting.

The subject of the next assay is MV4;11. The assay can be described thus: Antiproliferation assay (XTT), MV4;11.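 Further: EC50 values in Micromolar not Nanomolar.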 Conditions: Homo sapiens, MV4-11, 168 h, 7 days incubation, read-out: Antitumor activity EC50, MV4;11. In kind it is cell-based. On the procedure:
(§3) The antitumor activity of selected compounds was evaluated against the proliferation of a panel of MLL-r leukemia and other cancer cells. MV4;11 and Molm-13 leukemia cells contain MLL-AF4 and MLL-AF9 fusion oncogenes, respectively. NB4 and HL60 are AML cells without MLL translocation. Hela (cervical cancer) is a solid tumor cell line. […] The anti-proliferation activity of these compounds against other AML cells (i.e., NB4 and HL60) might be due to their inhibition of SEC-mediated gene expression (e.g., Myc), as observed in our previous studies.
(§4) Proliferation inhibition assays were performed using an XTT assay kit (Biotium, Fremont, CA, USA) following our previous methods. The antiproliferation EC50 values were determined using Prism 5 and the reported results were the mean values of at least three independent experiments. The incubation time for all compounds was 7 days.

A further assay relates to Molm13. The assay can be described thus: Antiproliferation assay (XTT), Molm-13.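 Further: EC50 values in Micromolar not Nanomolar.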 The assay is classed as cell-based. Conditions: Homo sapiens, MOLM-13, 168 h, 7 days incubation, read-out: Antitumor activity EC50, Molm13. How it is done: as §3, §4
The subject of the next assay is NB4. Nature of the assay: Antiproliferation assay (XTT), NB4.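 Further: EC50 values in Micromolar not Nanomolar.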 Conditions: Homo sapiens, NB-4, 168 h, 7 days incubation, read-out: Antitumor activity EC50, NB4. The assay is classed as cell-based. How it is done: as §3, §4
The next assay has as its system HL60. The assay can be described thus: Antiproliferation assay (XTT), HL60.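 Further: EC50 values in Micromolar not Nanomolar.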 In kind it is cell-based. Conditions: Homo sapiens, HL-60, 168 h, 7 days incubation, read-out: Antitumor activity EC50, HL60. How it is done: as §3, §4
In another assay the test system is Hela. The assay can be described thus: Antiproliferation assay (XTT), Hela. Conditions: 7 days incubation; for EC50: Homo sapiens, HeLa, 168 h, read-out: Antitumor activity EC50, Hela. In kind it is cell-based. On the procedure: as §3, §4
Assay [1] relates to panel of MLL-r leukemia and other cancer cells. The assay can be described thus: Antiproliferation assay (XTT), panel of MLL-r leukemia and other cancer cells. The assay is classed as cell-based. Conditions: 7 days; for EC50: 168 h, MV4;11, Molm-13, NB4 and HL60 cells, read-out: Antitumor activity EC50, span over MLL-r leukemia and AML cells; for Inhibition of tumor cell proliferation (in words): MV4;11, Molm-13, NB4, HL60 and Hela cells. On the procedure: as §3, §4

A further assay deals with T2, AF9-AF4 (Homo sapiens, UniProt P42568).
T2 construct: human AF9 AHD domain (475–568); made in house; host or cells: E. coli BL21(DE3)
T2 sequence (P42568 475-568): T1 sequence (P42568 475-568)
The assay can be described thus: AlphaLisa assay, AF9-AF4 interaction. In kind it is binding. Conditions: AF9 AHD, AF4 peptide. On the procedure:
(§5) Transcription cofactor AF4, which is the most frequent (~35%) fusion protein in MLL1-r leukemia, is another binding partner of AF9/ENL [35, 36, 37]. The AF9/ENL-AF4 interactions are essential for the formation of SEC, which causes aberrant gene expression in MLL-r leukemia and other AMLs. Using our previously developed AlphaLisa assays, selected compounds were tested for their ability to inhibit the PPIs between AF9 or ENL and AF4.
as §1, §2

The next assay concerns the target T3, ENL-AF4 (Homo sapiens, UniProt Q03111).
T3 construct: ENL AHD domain (489–559); made in house; host or cells: E. coli BL21(DE3)
T3 sequence (Q03111 489-559): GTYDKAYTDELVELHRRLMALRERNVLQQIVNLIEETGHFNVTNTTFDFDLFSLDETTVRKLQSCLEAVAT
Nature of the assay: AlphaLisa assay, ENL-AF4 interaction. In kind it is binding. Conditions: ENL AHD, AF4 peptide. On the procedure: as §5, §1, §2

On to `O=C(NCC1CCNCC1)c1c[nH]c2cc(-c3ccc(N4CCCCC4)cc3)ccc12` [Compound 2, 6-(4-(Piperidin-1-yl)phenyl)-N-(piperidin-4-ylmethyl)-1H-indole-3-carboxamide hydrochloride], for which, on AF9-DOT1L interaction, the IC50 came out at 4.5 ± 0.01 µM. Moreover, the EC50 is 33 ± 2.8 µM in the assay on MV4;11; 29 ± 2.5 µM in the assay with Molm13; 32 ± 2 µM with NB4; 50 µM in the assay on HL60; > 50 µM in the assay with Hela.
On to `Cl.O=C(NCC1CCNCC1)c1coc2cc(-c3ccc(N4CCCCC4)cc3)ccc12` [Compound 57, 6-(4-(Piperidin-1-yl)phenyl)-N-(piperidin-4-ylmethyl)-benzofuran-3-carboxamide hydrochloride], for which the IC50 on AF9-DOT1L interaction was 7.2 ± 0.4 µM. Further, the EC50 is 21 ± 1.2 µM with MV4;11; 13 ± 1.7 µM with Molm13; 11 ± 0.4 µM with NB4; 9.7 ± 1.2 µM in the assay on HL60; 50 µM in the assay on Hela; 9.7 to 21 µM in assay [1]. For the same compound, the “Antitumor activity EC50, Hela” value in the assay with Hela is “did not affect the growth of Hela cells”.
`O=C(NCC1CCNCC1)c1cc2cc(-c3cn[nH]c3)ccc2[nH]1` [Compound 22]: the IC50 is > 30 µM on AF9-DOT1L interaction, > 50 µM at AF9-AF4 and > 50 µM on ENL-AF4. Moreover, the “IC50 AF9-AF4” value against AF9-AF4 is on record as “did not inhibit”. Also, the “IC50 ENL-AF4” value on ENL-AF4 is on record as “did not inhibit”. The EC50 in the assay on MV4;11, in the assay on Molm13, with NB4, with HL60 and with Hela was > 50 µM in each case. In addition, in [1], the “Inhibition of tumor cell proliferation (in words)” value was “None of these three compounds inhibited tumor cell proliferation”.
For `O=C(NCC1CCNCC1)c1c[nH]c2cc(-c3ccc(N4CCCC4)cc3)ccc12` [Compound 12, 6-(4-(Pyrrolidin-1-yl)phenyl)-N-(piperidin-4-ylmethyl)-1H-indole-3-carboxamide hydrochloride], at AF9-DOT1L interaction, the IC50 was 2.9 ± 0.1 µM. Also, the EC50 in the assay on MV4;11 is 26 ± 1.8 µM; with Molm13 it was 50 µM; in the assay on NB4, 50 µM; in the assay on HL60 it was 50 µM; in the assay on Hela, > 50 µM.
As for `O=C(NCC1CCNCC1)c1cc2cc(-c3ccc(N4CCCC4)cc3)ccc2[nH]1` [Compound 16], the 50% inhibitory concentration (IC50) on AF9-DOT1L interaction was found to be 2.7 ± 0.2 µM; against AF9-AF4, 1.9 ± 0.1 µM; on ENL-AF4, 1.9 ± 0.3 µM.
Turning to `O=C(NCC1CCNCC1)c1cc2ccc(-c3ccc(N4CCCC4)cc3)cc2s1` [Compound 25, 6-(4-(Pyrrolindin-1-yl)phenyl)-N-(piperidin-4-ylmethyl)-benzo[b]thiophene-2-carboxamide hydrochloride], the IC50 at AF9-DOT1L interaction stood at 5.3 ± 0.1 µM; against AF9-AF4 it was 7.7 ± 0.9 µM; at ENL-AF4, 7.9 ± 1.5 µM. Moreover, the EC50 is 8.7 ± 0.9 µM with MV4;11; 9.4 ± 0.8 µM with Molm13; 10 ± 0.5 µM in the assay on NB4; 26 ± 2.6 µM with HL60; 50 µM in the assay on Hela; 8.7 to 26 µM in [1].
Regarding `Cl.NCc1ccc(-c2ccc3cc(C(=O)NCC4CCNCC4)oc3c2)cc1` [Compound 72, 6-(4-(Aminomethyl)phenyl)-N-(piperidin-4-ylmethyl)-benzofuran-2-carboxamide hydrochloride], the IC50 at AF9-DOT1L interaction is > 30 µM. In addition, the EC50 was ~50 µM with MV4;11; > 50 µM in the assay on Molm13; > 50 µM in the assay with NB4; > 50 µM with HL60; > 50 µM in the assay on Hela. Also, in [1], the “Inhibition of tumor cell proliferation (in words)” value is listed as “None of these three compounds inhibited tumor cell proliferation”.
As for `O=C(NCC1CCNCC1)c1cc2cc(-c3ccc(N4CCCCC4)cc3)ccc2[nH]1` [Compound 15], the IC50 at AF9-DOT1L interaction came to 3.6 ± 0.3 µM. The EC50 in the assay on MV4;11 was 22 ± 2 µM; in the assay on Molm13, 10 ± 1.6 µM; in the assay with NB4, > 50 µM; with HL60 it was 50 µM; with Hela it was > 50 µM.
Consider `N#Cc1ccc(-c2ccc3[nH]c(C(=O)NCC4CCNCC4)cc3c2)cc1F` [Compound 20, 5-(3-Fluoro-4-cyanophenyl)-N-(piperidin-4-ylmethyl)-1H-indole-2-carboxamide hydrochloride], for which the inhibition at 5 µM at AF9-DOT1L interaction was 8%.
For the compound `O=C(NCC1CCNCC1)c1cc2ccc(-c3cccc(-c4ccccc4)c3)cc2o1` [Compound 68, 6-((1,1′-Biphenyl)-3-yl)-N-(piperidin-4-ylmethyl)-benzofuran-2-carboxamide hydrochloride], the inhibition at 5 µM at AF9-DOT1L interaction came to 33%.
